Results as given in US20260364003A1, “EYE DROP MICROSUSPENSIONS OF MTOR INHIBITORS” (OCULIS OPERATIONS SARL, priority 2022, published 2026).

Tests used:
[1] = Table 9; cited from earlier work
[2] = Physicochemical characterization of lipid microsuspensions (pH, viscosity, osmolality, particle size); conditions: Table 9, lipid microsuspension containing the drug
Description: The diameter of a particle, such as a microparticle of mTOR inhibitor in oil and cyclodextrin/lipid complexes, can correspond to the D50 diameter of the particle. Diameter D50 is also known as the median diameter or the medium value of the particle size distribution. Diameter D50 corresponds to the value of the particle diameter at 50% in the cumulative distribution. For example, if D50 is 5 μm, then 50% of the particles in the sample are larger than 5 μm, and 50% smaller than 5 μm. Diameter D50 is usually used to represent the particle size of a group of particles.
The diameter and/or size of a particle can be measured according to any method known to those of ordinary skill in the art. For example, the diameter D50 is measured by laser diffraction particle size analysis. […] In particular, persons of ordinary skill in this field know that the physical properties (e.g. particle size, diameter, average diameter, mean particle size, etc.) are typically evaluated/measured using such limited, typical known techniques.
In specific embodiments, the particle size is measured by laser diffraction particle size analysis according to Pharm. […]
Following is a general procedure for preparation of a non-sterile lipid microsuspension at laboratory scale and for a total batch size of 100 g:
First, appropriate quantity of castor oil containing the dissolved drug-substance (i.e., everolimus) is transferred into a glass container. Second, under stirring with a magnetic stirrer aqueous α-cyclodextrin solution is added to the container. Third, aqueous solution containing EDTA and glycerol is added. Fourth, aqueous solution of Kolliphor HS15 is added. Mixing is continued for about 10 minutes before the stirring bar is removed and the suspension formed mixed with a high-shear homogenizer probe (Ultra-Turrax® T25 homogenizer, IKA-Werke, Germany, with probe IKA-S-25N-18G) operated at 8,000 RPM for about 10 minutes. […] The pH is adjusted to 5.3±0.1 with concentrated hydrochloric acid solution and/or sodium hydroxide solution. Finally, if needed, purified water is added to adjust the final weight of the sample to 100%.
The mixture obtained was homogenized for 10 minutes at 12,000 rpm using Ultra-Turrax® high shear homogenizer with S25N-18G probe at 12,000 rpm for 10 minutes. […] The lipid microsuspension formed was stirred by magnetic stirrer for 30 minutes at room temperature. Finally, the pH was adjusted by addition of hydrochloric acid and/or sodium hydroxide. […]

[3] = from the microemulsion; cited from earlier work
[4] = cited from earlier work; for chemical stability of derivative: sirolimus derivatives
[5] = room temperature; cited from earlier work
[6] = Phase-solubility of everolimus in aqueous cyclodextrin solutions; type: physicochemical; conditions: pure aqueous cyclodextrin solutions, 25 °C
Method: Everolimus was added to each cyclodextrin solution in excess, the samples were continuously agitated on a magnetic stirrer for 24 hours.

Row | Osmolality [2] | Particle size Dx(10) [2] | Particle size Dx(50) [2] | Particle size Dx(90) [2] | Viscosity at 15 rpm [2] | pH [2] | affinity for everolimus [6] | Structure (SMILES) | Drug LogP [1] | topical bioavailability [3] | stability in microemulsion eye drops ([4]; microemulsion eye drops containing about 25% water) | chemical stability of derivative [4] | solubility in water [5]
1 | 282 mOsmol/kg | 1.5 μm | 6.2 μm | 24 μm | 16.1 cP | 6.5 |  | CCOC(=O)O[C@]1(C(=O)OCCl)CC[C@H]2[C@@H]3CCC4=CC(=O)C=C[C@]4(C)[C@H]3[C@@H](O)C[C@@]21C [Loteprednol etabonate, loteprednol etabonate] | 3.9 |  |  |  | 
2 | 309 mOsmol/kg | 1.5 μm | 5.7 μm | 25 μm | 16.5 cP | 5.9 |  | CO[C@H]1C[C@@H]2CC[C@@H](C)[C@@](O)(O2)C(=O)C(=O)N2CCCC[C@H]2C(=O)O[C@H]([C@H](C)C[C@@H]2CC[C@@H](O)[C@H](OC)C2)CC(=O)[C@H](C)/C=C(\C)[C@@H](O)[C@@H](OC)C(=O)[C@H](C)C[C@H](C)/C=C/C=C/C=C/1C [Sirolimus, sirolimus] | 6.0 | very low | stable |  | 
3 | 304 mOsmol/kg | 1.5 μm | 5.3 μm | 22 μm | 15.7 cP | 5.0 |  | C=CC[C@@H]1/C=C(\C)C[C@H](C)C[C@H](OC)[C@H]2O[C@@](O)(C(=O)C(=O)N3CCCC[C@H]3C(=O)O[C@H](/C(C)=C/[C@@H]3CC[C@@H](O)[C@H](OC)C3)[C@H](C)[C@@H](O)CC1=O)[C@H](C)C[C@@H]2OC [Tacrolimus, tacrolimus] |  |  |  |  | 
4 |  |  |  |  |  |  | lowest affinity | OC[C@H]1O[C@@H]2O[C@H]3[C@H](O)[C@@H](O)[C@@H](O[C@H]4[C@H](O)[C@@H](O)[C@@H](O[C@H]5[C@H](O)[C@@H](O)[C@@H](O[C@H]6[C@H](O)[C@@H](O)[C@@H](O[C@H]7[C@H](O)[C@@H](O)[C@@H](O[C@H]1[C@H](O)[C@H]2O)O[C@@H]7CO)O[C@@H]6CO)O[C@@H]5CO)O[C@@H]4CO)O[C@@H]3CO [α-cyclodextrin] |  |  |  |  | 

Further lines, the molecule ahead of its results:

Row | Structure (SMILES) | Osmolality [2] | Particle size Dx(10) [2] | Particle size Dx(50) [2] | Particle size Dx(90) [2] | Viscosity at 15 rpm [2] | pH [2] | affinity for everolimus [6] | Drug LogP [1] | topical bioavailability [3] | stability in microemulsion eye drops ([4]; microemulsion eye drops containing about 25% water) | chemical stability of derivative [4] | solubility in water [5]
5 | C[C@@H]1C[C@H]2[C@@H]3CCC4=CC(=O)C=C[C@]4(C)[C@@]3(F)[C@@H](O)C[C@]2(C)[C@@]1(O)C(=O)CO [Dexamethasone, dexamethasone] | 297 mOsmol/kg | 1.4 μm | 4.6 μm | 16 μm | 17.7 cP | 6.4 |  | 1.9 |  |  |  | 
6 | CO[C@H]1C[C@@H]2CC[C@@H](C)[C@@](O)(O2)C(=O)C(=O)N2CCCC[C@H]2C(=O)O[C@H]([C@H](C)C[C@@H]2CC[C@@H](OC(=O)C(C)(CO)CO)[C@H](OC)C2)CC(=O)[C@H](C)/C=C(\C)[C@@H](O)[C@@H](OC)C(=O)[C@H](C)C[C@H](C)/C=C/C=C/C=C/1C [Temsirolimus, 42-[3-hydroxy-2-(hydroxymethyl)-2-methylpropanoate]-rapamycin] |  |  |  |  |  |  |  |  |  |  | do not improve the chemical stability | about 7 mg/mL
7 | CO[C@H]1C[C@@H]2CC[C@@H](C)[C@@](O)(O2)C(=O)C(=O)N2CCCC[C@H]2C(=O)O[C@H]([C@H](C)C[C@@H]2CC[C@@H](OP(C)(C)=O)[C@H](OC)C2)CC(=O)[C@H](C)/C=C(\C)[C@@H](O)[C@@H](OC)C(=O)[C@H](C)C[C@H](C)/C=C/C=C/C=C/1C [deforolimus, 42-(dimethylphosphinate)-rapamycin] |  |  |  |  |  |  |  |  |  |  | do not improve the chemical stability | about 7 mg/mL
